One experiment has as its system rabbit gastric glands. Nature of the experiment: Inhibitory effects on aminopyrine uptake into gastric glands. Format: cell-based. As to conditions: Oryctolagus cuniculus, 0.5 h, 37° C., 30 minutes, untreated control = 100%; for activity at 100 µM: 10^-4 M test compound; for activity at 10 µM: 10^-5 M test compound; for activity at 1 µM: 10^-6 M test compound. The text has this:
The production of gastric acid in the gastric mucosa is known to be performed by the parietal cells which are one kind of the cells constituting the gastric glands. The extent of the gastric acid secretion by the parietal cells has been deduced to be proportional to the rate of aminopyrine uptake into the gastric glands. Accordingly, the investigation of aminopyrine uptake into the gastric glands has been generally used as the indirect method for measuring the gastric acid secretion. Therefore, suspension of the rabbit gastric glands was prepared according to the method of Berglindh et al (see "Acta Physiol. Scand." 97, 401-414 (1976)). […] After this incubation, the reaction mixture obtained was centrifuged so that the gastric glands were spun down and separated from the incubation mixture. The gastric glands so collected were liophylized and the dry weight of the glands was measured. […] The so determined value of the radio-activity was assumed as the concentration or level of the aminopyrine uptaken into the gastric glands. According to the report of Berglindh et al (see "Acta Physiol. […] The radio-activity of the supernatant of the incubation mixture was determined in the same manner as above by the liquid scintillation counter, and the so determined value of the radio-activity of the supernatant was assumed to be the concentration or level of the aminopyrine present in the extraglandular water with the assumption that the so determined concentration of the aminopyrine in the supernatant was a measure of showing the quantity of the aminopyrine remaining not uptaken into gastric glands. Rate of aminopyrine uptake into gastric glands was calculated according to the following equation: [formula] The above experiment was repeated without the test compound as the Control test (untreated with test compound), and the rate of aminopyrine uptake as determined for this control test (untreated) was assumed to be 100%. The value (% of Control) was taken as showing the inhibitory effects of the test compound on the acid secretion. As a comparative drug, omeprazole was tested in the same way as above.

Another experiment deals with gastric mucosa. Nature of the experiment: Preventing the gastric ulcer induced by ethanol-hydrochloric acid (gastric cytoprotection). The conditions noted are these: Rattus norvegicus, po, rats; 30 minutes before 0.2N hydrochloric acid-50% aqueous ethanol; read-out: ED50 effective for 50% inhibition to the formation of necrotic lesions. Format: in vivo, SD-strain rats. Here is the method: Thus, according to the method of Robert et al (see "Gastroenterology" 77, 433-443 (1979)), SD-strain rats (male, weighing 200 to 220 g, 8 rats in each group) were deprived of food for 24 hours and deprived of water for 19 hours. The rats were then administered orally with a suspension of the test compound in aqueous 0.5% carboxymethylcellulose solution at a dosage of 6, 10 or 20 mg/kg of the test compound. […] One hour after the administration of the ethanolic hydrochloric acid, the rats were killed. Their stomacks were dissected out, and the lower part of the esophagus was nipped with a clip. Aqueous 1% formalin solution (12.0 ml) was poured into the stomacks from duodenum and then the duodenal part was nipped by a clip. The whole stomacks were immersed in aqueous 1% formalin solution for about 10 minutes for the fixation, the pyloric stomacks were opened along the greater curvature and then rinsed with water. The gastric mucosa was examined and the necrotic lesions or errosions as formed in the glandular stomack and in the pylorus were examined under anatomic microscope to determine the length (in mm) of the lesions. From the test results obtained by the above procedure, the ED50 value of the tested compound effective for 50% inhibition to the formation of necrotic lesions was evaluated. Omeprazole as the comparative drug was tested in the same manner as above.

The target of the next experiment is T1, H^+,K^+ -ATPase (Oryctolagus cuniculus, UniProt P27112).
T1 construct: The rabbit gastric glands were homogenized and the microsomal fractions were prepared; from tissue; host or cells: rabbit gastric glands, light membrane fraction between 30% and 40% sucrose
T1 sequence (P27112 whole entry): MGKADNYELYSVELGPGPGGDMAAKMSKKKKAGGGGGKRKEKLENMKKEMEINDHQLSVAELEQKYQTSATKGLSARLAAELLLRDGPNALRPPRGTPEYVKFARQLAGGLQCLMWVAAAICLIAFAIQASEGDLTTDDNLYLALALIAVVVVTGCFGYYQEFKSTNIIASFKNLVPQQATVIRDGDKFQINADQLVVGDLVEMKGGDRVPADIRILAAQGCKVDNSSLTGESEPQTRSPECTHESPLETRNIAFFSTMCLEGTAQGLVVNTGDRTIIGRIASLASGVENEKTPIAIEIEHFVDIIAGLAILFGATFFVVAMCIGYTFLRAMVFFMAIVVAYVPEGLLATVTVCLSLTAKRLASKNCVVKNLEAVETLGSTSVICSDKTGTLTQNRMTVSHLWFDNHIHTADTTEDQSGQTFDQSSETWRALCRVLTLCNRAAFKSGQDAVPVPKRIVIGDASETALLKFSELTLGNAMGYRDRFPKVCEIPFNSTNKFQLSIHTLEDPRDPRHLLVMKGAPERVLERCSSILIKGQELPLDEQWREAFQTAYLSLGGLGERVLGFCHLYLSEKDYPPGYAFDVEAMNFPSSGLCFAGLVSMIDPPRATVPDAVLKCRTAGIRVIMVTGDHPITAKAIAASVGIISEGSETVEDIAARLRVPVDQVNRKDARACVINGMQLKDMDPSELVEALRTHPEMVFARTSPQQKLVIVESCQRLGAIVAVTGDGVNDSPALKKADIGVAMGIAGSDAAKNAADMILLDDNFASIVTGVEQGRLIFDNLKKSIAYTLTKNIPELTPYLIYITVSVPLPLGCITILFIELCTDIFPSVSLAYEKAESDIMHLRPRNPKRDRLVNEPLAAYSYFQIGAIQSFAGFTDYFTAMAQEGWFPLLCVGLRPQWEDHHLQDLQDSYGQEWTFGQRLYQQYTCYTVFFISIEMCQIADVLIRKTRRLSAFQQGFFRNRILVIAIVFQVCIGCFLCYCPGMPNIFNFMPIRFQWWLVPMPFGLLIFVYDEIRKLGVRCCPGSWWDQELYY
T1 sequence (P18597 whole entry partner): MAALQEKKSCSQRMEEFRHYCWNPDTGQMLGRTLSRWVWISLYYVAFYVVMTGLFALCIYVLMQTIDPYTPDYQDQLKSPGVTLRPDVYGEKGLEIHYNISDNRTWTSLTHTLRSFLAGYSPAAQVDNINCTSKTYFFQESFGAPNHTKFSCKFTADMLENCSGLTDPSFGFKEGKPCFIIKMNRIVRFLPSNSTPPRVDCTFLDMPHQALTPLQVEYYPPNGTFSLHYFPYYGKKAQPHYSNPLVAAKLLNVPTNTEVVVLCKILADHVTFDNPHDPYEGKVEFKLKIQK
Nature of the experiment: Inhibitory effects on the enzymatic activity of H^+,K^+ -ATPase. The format is biochemical, rabbit. As to the method: The rabbit gastric glands were homogenized and the microsomal fractions were prepared by differential centrifugation of the resultant homogenate. The microsomal fractions were layered on a linear continuous sucrose gradient ranging from 20 to 55% (W/V) sucrose and centrifuged to obtain the light membrane fractions sedimenting between 30% sucrose and 40% sucrose. The light membrane fractions containing the H^+,K^+ -ATPase so obtained were used to estimate the inhibitory effects of the new compound of this invention or omeprazole on the enzymatic activity of H^+,K^+ -ATPase. Test compounds were pre-incubated with the reaction mixture containing the enzyme (20-50 μg as protein) for 30 minutes at 37° C. After this, the enzymatic activity of the reaction mixture was determined by incubating for 20 minutes at 37° C. with the following reactant mixture comprising 10 mM MgCl2, 10 mM ATP disodium salt and 400 mM Tris-HCl (pH 7.3) with or without 50 mM KCl.

A further experiment relates to gastric acid secretion. Nature of the experiment: Gastric acid antisecretory activity (tetragastrin-stimulated secretion). The format is in vivo, Donryu-strain rats. As to conditions: for ED50: Rattus norvegicus, iv, anaesthetized rats, tetragastrin 5 μg/kg, read-out: ED50 effective for 50% inhibition of the gastric acid secretion. As to the method: The bilateral vagus nerves in the cervical region of the rats were surgically cut and cannulas were inserted into the pylorus and also into the esophagus, respectively, and tied in place according to the method of Ghosh and Schild (see "Brit. J. Pharmacol." 13, 54 (1958)). Aqueous 0.9% saline solution (pH 8.5) as warmed to 40° C. was passed through the […] cannula into the stomack at a rate of 1 ml/min. for the perfusion. The pH value of the effluent coming from the pyloral cannula was measured. At the stage when the pH value of said effluent became steady, 5 μg/kg of tetragastrin, a stimulant for the gastric acid secretion, was administered through a cannula which had been inserted into the cervical vein. After the administration of tetragastrin,the decreasing change of pH value in the effluent was measured at constant intervals of time. Subsequently, a solution of the test compound in methanol was intraveously administered to the rat, and 15 minutes later tetragastrin was again administered. From the test data of the pH measurements so obtained was evaluated the ED50 value of the tested compound effective for 50% inhibition of the gastric acid secretion.

Where [1] appears, read: pre-incubated 30 minutes at 37° C., pH 7.3, with or without 50 mM KCl, read-out: IC50 value required for 50% inhibition of the enzymatic activity.

Read-outs that look alike come from different tables or passages of the source.

A word on the ED50: it is the dose that gives a 50% effect, or the effect in half of the subjects. Broadly, the IC50 is the concentration needed to halve the response being measured. As to `Cc1cnc(CSc2cc3ccccc3[nH]2)cc1N1CCCCC1` [Example 1, 2-[(5-methyl-4-piperidino-2-pyridyl)methylthio]indole], in the experiment on rabbit gastric glands, the activity at 100 µM came to 7%, the activity at 10 µM came out at 14% and the activity at 1 µM was found to be 44%. Besides, the 50% effective dose (ED50) with gastric mucosa was determined as 11.5 mg/kg. For the same compound, the “H^+,K^+ -ATPase inhibition (in words)” value at H^+,K^+ -ATPase is “H^+,K^+ -ATPase inhibitors”. Moreover, the IC50 at H^+,K^+ -ATPase (setting [1]) stood at 50 µM. In the experiment with gastric acid secretion, the median effective dose (ED50) worked out at 7.58 mg/kg. Further, in the experiment with gastric acid secretion (rat, in vivo), the “gastric acid antisecretory activity (in words)” value is “remarkedly milder than that of opeprazole”.

As for `CN(C)c1ccnc(CSc2c[nH]c3ccccc23)c1` [Example 2, 3-[(4-dimethylamino-2-pyridyl)methylthio]indole], in the experiment on rabbit gastric glands, the activity at 100 µM amounted to 24%, the activity at 10 µM came out at 72% and the activity at 1 µM came to 111%.

On to `Cc1cnc(C[S+]([O-])c2cc3ccccc3[nH]2)cc1N1CCCCC1` (centres unmarked) [Example 3, 2-[(5-methyl-4-piperidino-2-pyridyl)methylsulfinyl]indole], for which, in the experiment with rabbit gastric glands, the activity at 100 µM turned out to be 54%, the activity at 10 µM was determined as 64% and the activity at 1 µM turned out to be 99%.

Turning to `Cc1cnc(CSc2cc3ccccc3n2C)cc1N1CCCCC1` [Example 4, 1-methyl-2-[(5-methyl-4-piperidino-2-pyridyl)methylthio]indole], in the experiment with rabbit gastric glands, the activity at 100 µM is 7%, the activity at 10 µM turned out to be 8% and the activity at 1 µM was determined as 50%.

Consider `Cc1ccc2[nH]c(SCc3cc(N4CCCCC4)c(C)cn3)cc2c1` [Example 5, 5-methyl-2-[(5-methyl-4-piperidino-2-pyridyl)methylthio]indole], for which, in the experiment on rabbit gastric glands, the activity at 100 µM was determined as 11%, the activity at 10 µM turned out to be 18% and the activity at 1 µM was determined as 56%. Moreover, the ED50 in the experiment with gastric mucosa came out at 8.59 mg/kg.

On to `Cc1cnc(CSc2cc3cc(F)ccc3[nH]2)cc1N1CCCCC1` [Example 6, 5-fluoro-2-[(5-methyl-4-piperidino-2-pyridyl)methylthio]indole], for which, in the experiment with rabbit gastric glands, the activity at 100 µM was found to be 14%, the activity at 10 µM was found to be 76% and the activity at 1 µM stood at 48%. In addition, the 50% effective dose (ED50) in the experiment on gastric mucosa amounted to 12.7 mg/kg.

In the case of `Cc1cnc(CSc2cc3cc(C(F)(F)F)ccc3[nH]2)cc1N1CCCCC1` [Example 7, 5-trifluoromethyl-2-[(5-methyl-4-piperidino-2-pyridyl)methylthio]indole], in the experiment on rabbit gastric glands, the activity at 100 µM amounted to 14%, the activity at 10 µM stood at 17% and the activity at 1 µM was 55%. Besides, the median effective dose (ED50) with gastric mucosa worked out at 9.77 mg/kg.

As to `CCOC(=O)c1ccc2[nH]c(SCc3cc(N4CCCCC4)c(C)cn3)cc2c1` [Example 9, 5-ethoxycarbonyl-2-[(5-methyl-4-piperidino-2-pyridyl)methylthio]indole], in the experiment with rabbit gastric glands, the activity at 100 µM is 15%, the activity at 10 µM was determined as 20% and the activity at 1 µM was determined as 61%.

For `Cc1c(N2CCCCC2)ccnc1CSc1cc2ccccc2[nH]1` [Example 10, 2-[(3-methyl-4-piperidino-2-pyridyl)methylthio]indole], in the experiment on rabbit gastric glands, the activity at 100 µM was found to be 4%, the activity at 10 µM worked out at 19% and the activity at 1 µM is 71%.

In the case of `Cc1cnc(CSc2cc3ccccc3[nH]2)cc1N1CCOCC1` [Example 11, 2-[(5-methyl-4-morpholino-2-pyridyl)methylthio]indole], in the experiment with rabbit gastric glands, the activity at 100 µM is 3%, the activity at 10 µM was found to be 56% and the activity at 1 µM is 106%.

In the case of `Cc1cnc(CSc2cc3ccccc3[nH]2)cc1N1CCCC1` [Example 12, 2-[(5-methyl-4-pyrrolidino-2-pyridyl)methylthio]indole], in the experiment on rabbit gastric glands, the activity at 100 µM worked out at 10%, the activity at 10 µM was found to be 11% and the activity at 1 µM was 48%.

As to `CN(C)c1ccnc(CSc2cc3ccccc3[nH]2)c1` [Example 13, 2-[(4-Dimethylamino-2-pyridyl)methylthio]indole], in the experiment on rabbit gastric glands, the activity at 100 µM is 3%, the activity at 10 µM worked out at 48% and the activity at 1 µM was found to be 118%. Also, the ED50 in the experiment with gastric mucosa came out at 9.17 mg/kg. Moreover, the “H^+,K^+ -ATPase inhibition (in words)” value on H^+,K^+ -ATPase is “H^+,K^+ -ATPase inhibitors”. The IC50 on H^+,K^+ -ATPase (setting [1]) came to 700 µM.

With `COc1ccc2[nH]c(SCc3cc(N4CCCCC4)c(C)cn3)cc2c1` [Example 21, 5-methoxy-2-[(5-methyl-4-piperidino-2-pyridyl)methylthio]indole], the ED50 with gastric mucosa amounted to 14.6 mg/kg.

Take `c1ccc2[nH]c(SCc3cc(N4CCCCC4)ccn3)cc2c1` [Example 22, 2-[(4-piperidino-2-pyridyl)methylthio]indole]: the 50% effective dose (ED50) in the experiment with gastric mucosa is 8.13 mg/kg.

On to `Clc1ccnc(CSc2c[nH]c3ccccc23)c1` [Example 37, 3-[(4-chloro-2-pyridyl)methylthio]indole], for which, in the experiment with rabbit gastric glands, the activity at 100 µM is 95%, the activity at 10 µM was 105% and the activity at 1 µM was determined as 114%.

For the compound `CCOC(=O)c1ccnc(CSc2c[nH]c3ccccc23)c1` [Example 38, 3-[(4-ethoxycarbonyl-2-pyridyl)methylthio]indole], in the experiment on rabbit gastric glands, the activity at 100 µM came out at 141%, the activity at 10 µM came out at 103% and the activity at 1 µM amounted to 120%.

On to `Oc1ccnc(CSc2c[nH]c3ccccc23)c1` [Example 39, 3-[(4-hydroxy-2-pyridyl)methylthio]indole], for which, in the experiment on rabbit gastric glands, the activity at 100 µM stood at 105%, the activity at 10 µM is 109% and the activity at 1 µM is 120%.

As to `Cc1cnc(CSc2c[nH]c3ccccc23)cc1N1CCCCC1` [Example 40, 3-[(5-methyl-4-piperidino-2-pyridyl)methylthio]indole], in the experiment with gastric mucosa, the ED50 was found to be 2.84 mg/kg.

As to `COc1ccc2nc([S+]([O-])Cc3ncc(C)c(OC)c3C)[nH]c2c1` (centres unmarked) [Omeprazole, 2-[(3,5-dimethyl-4-methoxy-2-pyridyl)methylsulfinyl]-5-methoxybenzimidazole, reference compound], in the experiment on rabbit gastric glands, the activity at 100 µM was 18%, the activity at 10 µM came to 25% and the activity at 1 µM was found to be 34%. For the same compound, the ED50 in the experiment with gastric mucosa is 34.1 mg/kg. In addition, the midpoint of inhibition on H^+,K^+ -ATPase, the IC50, lay at 9.4 µM. Moreover, the ED50 with gastric acid secretion was found to be 0.24 mg/kg.
